Point of comparison: CCOC(Cc1ccc(OCCN2CCSc3ccccc32)cc1)C(=O)O (single isomer, unassigned; (-)), melting point 110 °C. Against it:
- O=Cc1cc([N+](=O)[O-])ccc1OC/C=C/CCl — lower, 65 to 66 °C
- FC(F)(F)c1cccc(N2CCN(c3nc4cccc5c4n3CCC5)CC2)c1 — higher, 158 to 159 °C
- COc1cccc(CN2CCCCC2C(=O)O)c1 (stereo unspecified) — higher, 186 to 187 °C
- COC1=CCC2=C(CC[C@H]3[C@@H]4CCC(=O)[C@@]4(C)CC[C@]23C)C1 — higher, 155 to 158 °C
- NC(=O)c1nc(C2CC2)nc(NCc2ccco2)c1Cl — higher, 126 to 128 °C
- CC(C)[C@@H](C(N)=O)C(=O)O — higher, 174 °C
- CC(O)c1ccc2c(c1)CCC(=O)N2 (stereo unspecified) — higher, 174 °C
- CCCNC(=O)CCC(C)C1CCC2C3C(OC(C)=O)CC4CC(OO)(OO)CCC4(C)C3CC(OC(C)=O)C12C (stereo unspecified) — higher, 120 to 129 °C
- Cc1oc(CCOc2ccc(CC3SC(=N)NC3=O)cc2)nc1CC(C)C (stereo unspecified) — higher, 167 to 168 °C
- c1ccc(Cn2c(-c3ccc4c(c3)OCCO4)nc3cccnc32)cc1 — higher, 156 to 158 °C
- Cc1nc2cc3c(cc2s1)C1(CO3)C(=O)N(CC2CCOCC2)c2ccccc21 (stereo unspecified) — higher, 186 to 187 °C
- Nc1cc(-c2ccc([N+](=O)[O-])c(N)c2)ccc1[N+](=O)[O-] — higher, 226 °C
- CCCc1cc(OCC)c2c(c1OC)S(=O)(=O)N(CCl)C2=O — higher, 131 to 133 °C
- CNc1nc(-c2cccc(NC(=O)Cc3ccccc3)c2)c2cc(OC)c(OC)cc2n1 — higher, 175 to 177 °C
- CN(Cc1cc2c(=O)c(C(=O)NCc3ccc(Cl)cc3)cn(C)c2s1)C[C@@H](O)c1ccco1 — higher, 159 to 162 °C
- COc1ccc2c(c1)cc(C(=O)c1ccc(C)cc1)n2C — higher, 149 to 151 °C
- CC(=O)c1ccc2c(c1)ncn2-c1cccc(N2CCN(C(C)=NO)CC2)c1 — higher, 193 to 195 °C
- CCCCCc1c(C(C)C)cc(C(C)C)c(C(C)O)c1-c1ccc(F)cc1 (stereo unspecified) — higher, 126 °C
- Clc1ccc(-c2coc(CCCI)n2)cc1 — lower, 49 to 50 °C
- COc1ccc(N(CC(=O)O)c2ccccc2)c(C(=O)O)c1 — higher, 158 to 161 °C
- CN(C)CCCNC(=S)Nc1ccccc1 — higher, 112 to 114 °C
- O=C(C=Cc1cccnc1)NCCCCC1CCN(C(=O)c2ccccc2)CC1 — lower, 100 to 102 °C
- CC(C)(C)OC(=O)N1C(=O)O[C@@H](c2ccc(F)cc2)[C@H]1Cc1ccc(C(F)(F)F)o1 (racemic) — higher, 134 to 135 °C
- CN(C)C=C1CN=C(c2ccccc2Cl)c2ccccc2C1=O — higher, 155 to 157 °C
- COc1cc(NC(=O)N[C@H]2CCCCNC2=O)c(O)c(C(C)(C)C)c1 — higher, 178 to 179 °C
- CCCCCc1ccc(-c2ccc(-c3c(C(=O)OC)c4c(c5ccccc35)OC(c3ccccc3)(c3ccc(N(CC)CC)cc3)C=C4)cc2)cc1 (stereo unspecified) — higher, 177 to 178 °C
- CC1(c2ccccc2)OC(=O)COC1=O (stereo unspecified) — lower, 90 to 91 °C
- Cc1c(Cl)cccc1S(=O)(=O)Nc1ccc2c(c1)nc(C)n2-c1ccccc1 — higher, 254 to 256 °C
- CCCCCCCCCCCCCCCCCCOc1cc(OCCCOc2cccc(N)c2)cc(C(=O)N(CC(=O)O)CC(=O)O)c1 — lower, 100 to 104 °C
- N#Cc1cc(Br)c(OC(=O)OCOC(=O)c2ccc(Oc3ccc(C(F)(F)F)cc3Cl)cc2[N+](=O)[O-])c(Br)c1 — higher, 122 to 123 °C
- CC1(C2CCCC2)Cc2cc(OCC#N)c(Cl)c(Cl)c2C1=O (stereo unspecified) — higher, 129 to 131 °C
- CCCCCCCCCCCCCCCCCCCCC(=O)Nc1ccn(C2OC(CO)C(O)C2O)c(=O)n1 (stereo unspecified) — higher, 139 to 142 °C
- Oc1cc2c(cc1O)OCC(c1ccc(F)cc1)C2 (stereo unspecified) — higher, 135 to 137 °C
- CCCC(CNc1cc(Cl)ccc1C(=O)O)C(=O)O (stereo unspecified) — higher, 206 °C
- O=C1NC(=O)C(Nc2ccc3ccccc3c2)S1 (stereo unspecified) — higher, 200 to 201 °C
- COC(=O)c1cc2ccoc2nc1C1=NC(C)(C(C)C)C(=O)N1 (stereo unspecified) — higher, 134 to 137 °C
- C=CCN(C=CC=C(C#N)C#N)CC=C — lower, 50 to 52 °C
- O=C(O)c1ncsc1-c1ccccc1 — higher, 189 to 190 °C
- CCCc1oc(-c2ccccc2)nc1COc1ccc(C=O)cc1 — lower, 76 to 77 °C
- S=C1C[C@@H](SCc2ccccc2)CN1 — lower, 86 to 88 °C
- Cc1cc2c(c(C)c1NC(=O)OC(C)(C)C)CC(C)(C)O2 — higher, 121 to 123 °C
- Cc1cc(C(=O)N2Cc3cccn3Cc3ccccc32)ccc1C1=CCCc2ccccc21 — lower, 108 °C
- Cc1ccc(C)c(SCCC(=O)O)c1 — lower, 100 to 102 °C
- O=c1ccc(-c2c(-c3ccccc3)nn3ccncc23)c[nH]1 — higher, > 250 °C
- CCCCCCCCCCCN=C=S — lower, 71 to 72 °C
- O=C(O)Cn1cc(Cc2nc3c(F)c(F)cc(F)c3s2)c2cc(-c3ccccc3)ccc21 — higher, 156 to 159 °C
- OCC1CCCn2c(cc3ccccc32)C1 (stereo unspecified) — not separable, 109 to 111 °C
- COc1cc2c(cc1OCCCN1CCC(c3noc4cc(F)ccc34)CC1)CCCC2=O — higher, 129 to 131 °C
- CCCc1nc(C)c2nnc3cc(OC)ccc3n12 — higher, 159 to 162 °C
- COc1cc(NC2CC3CCC(C2)N3Cc2ccccc2)ccc1C(N)=O (stereo unspecified) — higher, 138 to 140 °C
- N#Cc1cnc2c(c1Nc1ccc(Oc3ccccc3)cc1)C=C1N=CN=C1C2 — higher, > 270 °C
- O=C1c2cccc3c2N(CC3)c2ccccc2N1CC#CCN1CCCC1 — lower, 80 to 81 °C
- COc1ccc(C=CC(=O)c2ccc(O)cc2)cc1OC — higher, 193 to 198 °C
- CCCCOCCOc1ccc(-c2ccc3c(c2)C=C(C(=O)Nc2ccc4c(c2)nc(S(=O)Cc2cncn2CCC)n4C)CCN3CC(C)C)cc1 (stereo unspecified) — higher, 150 to 151 °C
- CCn1cccc1C(N)=S — lower, 71.5 to 74.5 °C
- COC(=O)C1=C(C)NC(CC(=O)N2CCN(C3Cc4ccccc4C3)CC2)=C(C(=O)OC)C1c1c(Cl)cccc1Cl (stereo unspecified) — higher, 190 to 200 °C
- CCOC(=O)C1C(=O)NC(=O)C12C(=O)N(Cc1ccc(Cl)c(Cl)c1)c1ccccc12 (stereo unspecified) — lower, 60 to 85 °C
- COc1cccc([C@H]2O[C@H](CC(=O)NCCCCCC(=O)O)C(=O)N(CC(C)(C)CO)c3ccc(Cl)cc32)c1OC — lower, 96 to 98 °C
- O=c1[nH]nc2n1-c1ccc(N3CCCC3)nc1C(c1ccccc1Cl)=NC2 — higher, 228 to 230 °C
- CN(C)c1cccc2c1c(=O)n(C)c1c(-c3noc(C4CC4)n3)ncn21 — higher, 170 to 171 °C
- COc1cc(C(C)=O)ccc1OCCCCCl — lower, 68.5 to 70.5 °C
- OC[C@H](O)[C@H](O)COc1nc(N2CCNCC2)nc2ccccc12 (racemic) — higher, 168 to 172 °C
- COc1ccc(CCCC2(Br)C(=O)NC(=O)NC2=O)cc1 — higher, 113 to 114 °C
- CCCCCCCCCCCCCCCCOc1ccc(S(N)(=O)=O)cc1N — lower, 103 to 105 °C
- O=C1c2nccnc2C(=O)N1c1ccc(Cl)cn1 — higher, 165 °C
- C=CCNC(=O)N1CC(Oc2ccc(F)cc2)C1 — lower, 92 to 94 °C
- O=C(NNC(=O)c1occc1-c1cccc(OCc2ccccc2)c1)c1ccc(O)c([N+](=O)[O-])c1 — higher, 171 to 173 °C
- COC(=O)c1cccc(CCN(C)CCCC(C#N)(C(=O)OC)c2ccc(OC)c(OC)c2)c1 (stereo unspecified) — lower, 94 to 95 °C
- Cn1c(C(F)(F)F)cc(=O)n(-c2cc(F)c([N+](=O)[O-])cc2F)c1=O — higher, 150 °C
- COC(=O)C=Cc1cc(NC2CCN(Cc3ccccc3)CC2)ccc1C — higher, 140 to 142 °C
- C[C@@H](n1cnc2cc(N)c(F)cc2c1=O)[C@](O)(Cn1cncn1)c1ccc(F)cc1F — higher, 124 to 125 °C
- NCc1nnc2n1-c1ccc(Cl)cc1C(c1ccccc1)=NC2 — higher, 168 to 172 °C
- CS(=O)(=O)C(=C1CN(C(c2ccccc2)c2ccccc2)C1)c1cccc2cccnc12 — higher, 212 °C
- O=C(c1ccccc1CN1CC=CCC1)N1CCN2C(=O)OC(c3ccccc3)(c3ccccc3)C2C1 (stereo unspecified) — higher, 155 to 157 °C
- CC#CCOc1ccc(C(=O)N(C)C[C@@H](C(=O)NO)N2CCN(S(C)(=O)=O)CC2)cc1 — higher, 145 °C
- CCOC(=NS(C)(=O)=O)N1Cc2ccccc2-c2ccccc2C1 — higher, 136 to 138 °C
- CN(C)c1ccc(C(c2ccccc2)c2c(C(=O)O)[nH]c3ccccc23)cc1 (stereo unspecified) — lower, 72 to 78 °C
- COC(=O)C1CCN2C(=O)C(=O)c3cc([N+](=O)[O-])cc1c32 (stereo unspecified) — higher, 144 to 145 °C
- O=C(Nc1c(Cl)cc(-c2n[nH]c(=O)o2)c2c1OCCO2)OCc1ccccc1 — higher, 230 °C
- CCCc1c(SCCCOc2ccc3c(=O)cc(CCC(=O)O)oc3c2CCC)ccc(C(C)=O)c1N — higher, 153 to 155 °C
- O=C(NC1CN2CCC1CC2)c1ccc2[nH]ccc2c1 (stereo unspecified) — higher, 293 to 295 °C
- COc1ccc(N2CCN(C3CCN(Cc4ccccc4)CC3)C2=O)cc1 — higher, 144 to 147 °C
- COc1ccc(-c2cncn2-c2ccc(S(C)(=O)=O)cc2)c(Cl)n1 — higher, 192 to 198 °C
- Cc1ccc(S(=O)(=O)NCCCN(CCN(CCCNS(=O)(=O)c2ccc(C)cc2)S(=O)(=O)c2ccc(C)cc2)S(=O)(=O)c2ccc(C)cc2)cc1 — higher, 141 to 142 °C
- O=C(O)c1ccccc1C(=O)c1cc(-c2ccccc2)c(O)c(-c2ccccc2)c1 — higher, 234 °C
- Oc1cc2c(cc1CCCOc1ccccc1)OC(CCc1ccccc1)C2 (stereo unspecified) — lower, 65 to 70 °C
- CN(C)c1ncc(C(=O)CNCC(O)c2cccc(OC(=O)C(C)(C)C)c2)c(-c2ccccc2)n1 (stereo unspecified) — higher, 145 to 146 °C
- CC(C)c1ccc(N(Cc2cnn(CC(F)(F)F)c2)C(=O)C2CCCc3c(O)cccc32)cn1 (stereo unspecified) — higher, 128 °C
- COC(=O)CCCCCCNC(=O)C(COS(C)(=O)=O)NS(=O)(=O)c1ccc(Cl)cc1 (racemic) — lower, 77 to 82 °C
- CS(=O)(=O)c1ccc(-c2cnc3cnc(-c4ccc(O)cc4)nc3c2)cc1 — higher, 306 to 307 °C
- CCCCCCCCc1ccc(C(=O)CCCCCC(=O)OCC)cc1 — lower, 38 to 40 °C
- CCOC(=O)CC[C@H](NC(=O)c1ccc(I)cc1)C(=O)OCC — lower, 105 to 106 °C
- CN(C)Cc1ccc(CSCCNc2ncc(Cc3ccn(Cc4ccccc4)c(=O)c3)c(=O)[nH]2)o1 — lower, 95.5 to 98 °C
- NS(=O)(=O)Oc1ccccc1C(=O)O — higher, 139 to 140 °C
- N=C(NC(=O)NCCCCCCNC(=O)NC(=N)Nc1ccc(Cl)cc1)Nc1ccc(Cl)cc1 — higher, 186 to 190 °C
